In patent publication US20230085307A1, “PYRIDAZINONE COMPOUND AND HERBICIDE” (NISSAN CHEMICAL CORPORATION, priority 2019, published 2023):

Assays:
[1] = test system: rice flat sedge; assay: Test Example 3: herbicidal effect by foliage application, Wagner pot (Table 18, symbol E); format: in vivo, rice flat sedge (Cyperus iria); conditions: 320 g/ha
Method in brief: (§1)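 Plants were sown in alluvial soil held under 0.1–0.5 cm standing water and grown 14 days in a greenhouse at 25–30 °C. An emulsifiable formulation, water-diluted to the set dose, was then sprayed onto the foliage, and effects were scored three weeks later using previously defined criteria.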

[2] = test system: southern crabgrass; assay: Test Example 4: herbicidal effect by soil treatment (Table 19, symbol F); format: in vivo, southern crabgrass (Digitaria ciliaris); conditions: AAH 320 g/ha
Method in brief: (§2)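 Emulsion of test compound, water-diluted to predetermined amount, sprayed on soil after sowing (seed depth ~1.5 cm, sterilized diluvial soil). Greenhouse, 25–30° C. Effect graded at three weeks post-spray.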

[3] = test system: green foxtail; assay: Test Example 5: herbicidal effect by foliage application, plastic box (Table 20, symbol G); format: in vivo, green foxtail (Setaria viridis); conditions: foliage application, 320 g/ha, 3 weeks after application
Method in brief: (§3)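 Post-emergence foliar test in sterilized diluvial soil. Compound applied as water-diluted emulsion at a predetermined rate to 14-day-old plants; evaluation at three weeks.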

[4] = test system: southern crabgrass; assay: Test Example 5: herbicidal effect by foliage application, plastic box (Table 20, symbol F); format: in vivo, southern crabgrass (Digitaria ciliaris); conditions: foliage application, 320 g/ha, 3 weeks after application
Method in brief: as §3

[5] = test system: green foxtail; assay: Test Example 4: herbicidal effect by soil treatment (Table 19, symbol G); format: in vivo, green foxtail (Setaria viridis); conditions: AAH 320 g/ha
Method in brief: as §2

[6] = test system: barnyard grass; assay: Test Example 5: herbicidal effect by foliage application, plastic box (Table 20, symbol H); format: in vivo, barnyard grass (Echinochloa crus-galli); conditions: foliage application, 320 g/ha, 3 weeks after application
Method in brief: as §3

[7] = test system: persian speedwell; assay: Test Example 5: herbicidal effect by foliage application, plastic box (Table 20, symbol R); format: in vivo, Persian speedwell (Veronica persica); conditions: foliage application, 320 g/ha, 3 weeks after application
Method in brief: as §3

[8] = test system: Chinese sprangletop; assay: Test Example 3: herbicidal effect by foliage application, Wagner pot (Table 18, symbol D); format: in vivo, chinese sprangletop (Leptochloa chinensis); conditions: 320 g/ha
Method in brief: as §1

[9] = test system: lambsquarters; assay: Test Example 4: herbicidal effect by soil treatment (Table 19, symbol O); format: in vivo, lambsquarters (Chenopodium album); conditions: AAH 320 g/ha
Method in brief: as §2

[10] = test system: blackgrass; assay: Test Example 5: herbicidal effect by foliage application, plastic box (Table 20, symbol J); format: in vivo, blackgrass (Alopecurus myosuroides); conditions: foliage application, 320 g/ha, 3 weeks after application
Method in brief: as §3

[11] = test system: barnyard grass; assay: Test Example 3: herbicidal effect by foliage application, Wagner pot (Table 18, symbol H); format: in vivo, barnyard grass (Echinochloa crus-galli); conditions: 320 g/ha
Method in brief: as §1

[12] = test system: Italian ryegrass; assay: Test Example 5: herbicidal effect by foliage application, plastic box (Table 20, symbol K); format: in vivo, Italian ryegrass (Lolium multiflorum); conditions: foliage application, 320 g/ha, 3 weeks after application
Method in brief: as §3

[13] = test system: wild oat; assay: Test Example 5: herbicidal effect by foliage application, plastic box (Table 20, symbol I); format: in vivo, wild oat (Avena fatua); conditions: foliage application, 320 g/ha, 3 weeks after application
Method in brief: as §3

[14] = test system: Italian ryegrass; assay: Test Example 4: herbicidal effect by soil treatment (Table 19, symbol K); format: in vivo, Italian ryegrass (Lolium multiflorum); conditions: AAH 320 g/ha
Method in brief: as §2

[15] = test system: chickweed; assay: Test Example 4: herbicidal effect by soil treatment (Table 19, symbol P); format: in vivo, common chickweed (Stellaria media); conditions: AAH 320 g/ha
Method in brief: as §2

[16] = test system: barnyard grass; assay: Test Example 4: herbicidal effect by soil treatment (Table 19, symbol H); format: in vivo, barnyard grass (Echinochloa crus-galli); conditions: AAH 320 g/ha
Method in brief: as §2

[17] = test system: blackgrass; assay: Test Example 4: herbicidal effect by soil treatment (Table 19, symbol J); format: in vivo, blackgrass (Alopecurus myosuroides); conditions: AAH 320 g/ha
Method in brief: as §2

[18] = test system: windgrass; assay: Test Example 5: herbicidal effect by foliage application, plastic box (Table 20, symbol L); format: in vivo, windgrass (Apera spica-venti); conditions: foliage application, 320 g/ha, 3 weeks after application
Method in brief: as §3

[19] = test system: windgrass; assay: Test Example 4: herbicidal effect by soil treatment (Table 19, symbol L); format: in vivo, windgrass (Apera spica-venti); conditions: AAH 320 g/ha
Method in brief: as §2

[20] = test system: redroot pigweed; assay: Test Example 4: herbicidal effect by soil treatment (Table 19, symbol N); format: in vivo, redroot pigweed (Amaranthus retroflexus); conditions: AAH 320 g/ha
Method in brief: as §2

[21] = test system: lambsquarters; assay: Test Example 5: herbicidal effect by foliage application, plastic box (Table 20, symbol O); format: in vivo, lambsquarters (Chenopodium album); conditions: foliage application, 320 g/ha, 3 weeks after application
Method in brief: as §3

[22] = test system: wild oat; assay: Test Example 4: herbicidal effect by soil treatment (Table 19, symbol I); format: in vivo, wild oat (Avena fatua); conditions: AAH 320 g/ha
Method in brief: as §2

[23] = test system: velvetleaf; assay: Test Example 4: herbicidal effect by soil treatment (Table 19, symbol M); format: in vivo, velvetleaf (Abutilon theophrasti); conditions: AAH 320 g/ha
Method in brief: as §2

[24] = test system: persian speedwell; assay: Test Example 4: herbicidal effect by soil treatment (Table 19, symbol R); format: in vivo, Persian speedwell (Veronica persica); conditions: AAH 320 g/ha
Method in brief: as §2

[25] = test system: velvetleaf; assay: Test Example 5: herbicidal effect by foliage application, plastic box (Table 20, symbol M); format: in vivo, velvetleaf (Abutilon theophrasti); conditions: foliage application, 320 g/ha, 3 weeks after application
Method in brief: as §3

| Structure (SMILES) | herbicidal effect on E (rice flat sedge), rating 0-5 [1] | F: southern crabgrass, herbicidal effect rating [2] | effect on green foxtail (G) [3] | effect on southern crabgrass (F) [4] | G: green foxtail, herbicidal effect rating [5] | effect on barnyard grass (H) [6] | effect on persian speedwell (R) [7] | herbicidal effect on D (Chinese sprangletop), rating 0-5 [8] | O: lambsquarters, herbicidal effect rating [9] | effect on blackgrass (J) [10] | herbicidal effect on H (barnyard grass), rating 0-5 [11] | effect on Italian ryegrass (K) [12] | effect on wild oat (I) [13] | K: Italian ryegrass, herbicidal effect rating [14] | P: chickweed, herbicidal effect rating [15] | H: barnyard grass, herbicidal effect rating [16] | J: blackgrass, herbicidal effect rating [17] | effect on windgrass (L) [18] | L: windgrass, herbicidal effect rating [19] | N: redroot pigweed, herbicidal effect rating [20] | further results |
| --- | --- | --- | --- | --- | --- | --- | --- | --- | --- | --- | --- | --- | --- | --- | --- | --- | --- | --- | --- | --- | --- |
| CCCC(=O)Oc1c(OC)nn(C)c(=O)c1-c1c(-c2cc3ccccc3s2)sc2ccccc12 [1-197] | 4 (Herbicidal rate of 70% or more and less than 90%) | 0 (Herbicidal rate of 5% or less (almost no effect)) | 1 (Herbicidal rate of 5% or more and less than 20%) | 0 (Herbicidal rate of 5% or less (almost no effect)) | 0 (Herbicidal rate of 5% or less (almost no effect)) | 0 (Herbicidal rate of 5% or less (almost no effect)) | 5 (Herbicidal rate of 90% or more (almost completely withered)) | 2 (Herbicidal rate of 20% or more and less than 40%) | 0 (Herbicidal rate of 5% or less (almost no effect)) | 0 (Herbicidal rate of 5% or less (almost no effect)) | 4 (Herbicidal rate of 70% or more and less than 90%) | 0 (Herbicidal rate of 5% or less (almost no effect)) | 0 (Herbicidal rate of 5% or less (almost no effect)) | 0 (Herbicidal rate of 5% or less (almost no effect)) | 5 (Herbicidal rate of 90% or more (almost completely withered)) | 0 (Herbicidal rate of 5% or less (almost no effect)) | 0 (Herbicidal rate of 5% or less (almost no effect)) | 0 (Herbicidal rate of 5% or less (almost no effect)) | 0 (Herbicidal rate of 5% or less (almost no effect)) | 0 (Herbicidal rate of 5% or less (almost no effect)) | effect on lambsquarters (O) [21]: 1 (Herbicidal rate of 5% or more and less than 20%); I: wild oat, herbicidal effect rating [22]: 0 (Herbicidal rate of 5% or less (almost no effect)); M: velvetleaf, herbicidal effect rating [23]: 0 (Herbicidal rate of 5% or less (almost no effect)); R: persian speedwell, herbicidal effect rating [24]: 5 (Herbicidal rate of 90% or more (almost completely withered)); effect on velvetleaf (M) [25]: 3 (Herbicidal rate of 40% or more and less than 70%) |
| Cc1nn(C)c(=O)c(-c2c(-c3ccc(O)cc3)sc3ccccc23)c1O [1-200] | 3 (Herbicidal rate of 40% or more and less than 70%) | 0 (Herbicidal rate of 5% or less (almost no effect)) | 3 (Herbicidal rate of 40% or more and less than 70%) | 3 (Herbicidal rate of 40% or more and less than 70%) | 0 (Herbicidal rate of 5% or less (almost no effect)) | 4 (Herbicidal rate of 70% or more and less than 90%) | 5 (Herbicidal rate of 90% or more (almost completely withered)) | 3 (Herbicidal rate of 40% or more and less than 70%) | 0 (Herbicidal rate of 5% or less (almost no effect)) | 0 (Herbicidal rate of 5% or less (almost no effect)) | 4 (Herbicidal rate of 70% or more and less than 90%) | 1 (Herbicidal rate of 5% or more and less than 20%) | 0 (Herbicidal rate of 5% or less (almost no effect)) | 0 (Herbicidal rate of 5% or less (almost no effect)) | 1 (Herbicidal rate of 5% or more and less than 20%) | 0 (Herbicidal rate of 5% or less (almost no effect)) | 0 (Herbicidal rate of 5% or less (almost no effect)) | 0 (Herbicidal rate of 5% or less (almost no effect)) | 0 (Herbicidal rate of 5% or less (almost no effect)) | 0 (Herbicidal rate of 5% or less (almost no effect)) | effect on lambsquarters (O) [21]: 4 (Herbicidal rate of 70% or more and less than 90%); I: wild oat, herbicidal effect rating [22]: 0 (Herbicidal rate of 5% or less (almost no effect)); M: velvetleaf, herbicidal effect rating [23]: 0 (Herbicidal rate of 5% or less (almost no effect)); R: persian speedwell, herbicidal effect rating [24]: 3 (Herbicidal rate of 40% or more and less than 70%); effect on velvetleaf (M) [25]: 5 (Herbicidal rate of 90% or more (almost completely withered)) |
